Several values for one entry are separate records, joined by “and”; a condition that tells them apart may be missing. Equal values may be shown once.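 These data come from cells grown in 96-well plates and exposed to compound for 48 hours at five concentrations. At the GI50, growth is halved. TGI: total growth inhibition.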
Key:
Assay in all cases: growth of human tumour cells (NCI), 48 h
RPMI-8226 leukemia = system: RPMI-8226 leukemia
SF-539 CNS = system: SF-539 CNS
T-47D breast = system: T-47D breast
MOLT-4 leukemia = system: MOLT-4 leukemia
KM12 colon = system: KM12 colon
NCI-H226 lung = system: NCI-H226 lung
M14 melanoma = system: M14 melanoma
SNB-19 CNS = system: SNB-19 CNS
MALME-3M melanoma = system: MALME-3M melanoma
IGROV1 ovarian = system: IGROV1 ovarian

| SMILES | TGI (RPMI-8226 leukemia) | TGI (SF-539 CNS) | TGI (T-47D breast) | TGI (MOLT-4 leukemia) | TGI (KM12 colon) | TGI (NCI-H226 lung) | TGI (M14 melanoma) | TGI (SNB-19 CNS) | TGI (MALME-3M melanoma) | TGI (IGROV1 ovarian) | GI50 (RPMI-8226 leukemia) | GI50 (SF-539 CNS) | GI50 (T-47D breast) | GI50 (MOLT-4 leukemia) | GI50 (KM12 colon) | GI50 (NCI-H226 lung) |
| --- | --- | --- | --- | --- | --- | --- | --- | --- | --- | --- | --- | --- | --- | --- | --- | --- |
| Cc1cn(C2CC(n3cc(Cn4cc(I)c(=O)[nH]c4=O)nn3)C(CO)O2)c(=O)[nH]c1=O (stereo unspecified) | > 100 µM | > 100 µM | > 100 µM | > 100 µM | > 100 µM | > 100 µM | > 100 µM | > 100 µM | – | – | – | – | – | – | – | – |
| Oc1cccc2c(Cl)ccnc12 | – | > 60.5 µM | 48.2 µM | 4.19 µM | 82.3 µM | > 100 µM | 13.4 µM | > 100 µM | 25.4 µM | > 29.7 µM | – | – | – | – | – | – |
| c1ccc(N=C2SC3=Nc4cccc5cccc(c45)N3C2=Nc2ccccc2)cc1 | > 100 µM | – | > 100 µM | > 100 µM | > 100 µM | > 100 µM | > 100 µM | > 100 µM | > 100 µM | > 100 µM | – | – | – | – | – | – |
| CCC12C=CCN3CCC4(C(=C(C(=O)OC)[C@@H]1O)Nc1ccccc14)C32 (stereo partly specified) | 6 µM | 4.72 µM | – | 11.7 µM | 3.19 µM | 2.71 µM | 5.54 µM | 3.8 µM | 3.43 µM | 3.9 µM | – | – | – | – | – | – |
| O=C1CCC23CC(C=CC=C12)n1c(=O)n(-c2ccccc2)c(=O)n13 (stereo unspecified) | > 100 µM | > 100 µM | – | > 100 µM | > 100 µM | > 100 µM | – | > 100 µM | > 100 µM | > 100 µM | – | – | – | – | – | – |
| C=C(Br)C(C)(Cl)CCC(Br)C(C)(C)Cl (stereo unspecified) | – | > 100 µM | > 100 µM | > 100 µM | > 100 µM | 66.2 µM | > 100 µM | > 100 µM | 57.8 µM | > 100 µM | – | – | – | – | – | – |
| CC1=C(C)[C@@]2(C)O[C@@]2(C)O[C@@]2(C)O[C@@]12C | – | – | > 100 µM | – | > 100 µM | > 100 µM | > 100 µM | > 100 µM | > 100 µM | – | – | – | – | – | – | – |
| O=S1(=O)NC(=NCc2c[nH]c3ccccc23)N(c2ccccc2)c2ccncc21 | – | > 100 µM | > 100 µM | > 100 µM | > 100 µM | > 100 µM | > 100 µM | > 100 µM | > 100 µM | – | – | – | – | – | – | – |
| CCCNC1=C2CC(C)CC(OC)[C@@H](O)[C@H](C)/C=C(\C)C(OC(N)=O)C(OC)/C=C\C=C(/C)C(=O)NC(=CC1=O)C2=O (stereo partly specified) | 42.2 µM | 18.3 µM | 35 µM | 13.5 µM | 0.673 µM and 0.727 µM | 5.21 µM | – | > 100 µM | – | 41.6 µM | 463 nM | 402 nM | 1150 nM | 492 nM | 23.9 nM | 244 nM |
| O=C(O)c1cccc2c1/C(=N/Nc1ccccc1)CC2 | > 100 µM | > 100 µM | > 100 µM | > 100 µM | > 100 µM | 98.9 µM | > 100 µM | – | – | > 100 µM | – | – | – | – | – | – |
| O=C(Nc1ccc(C2=NCCN2)cc1)c1cncc(C(=O)Nc2ccc(C3=NCCN3)cc2)c1 | > 100 µM | > 100 µM | – | > 100 µM | > 100 µM | > 100 µM | – | > 100 µM | > 100 µM | > 100 µM | – | – | – | – | – | – |
| COC(=O)[C@H](Cc1c[nH]c2ccccc12)NP(=O)(O)OCC1C=CC(n2cc(C)c(=O)[nH]c2=O)O1 (stereo partly specified) | > 100 µM | – | > 100 µM | > 100 µM | > 100 µM | > 100 µM | – | > 100 µM | – | > 100 µM | – | – | – | – | – | – |
| FC(F)(F)c1cc(Cl)cnc1N/N=C(/c1ccccc1)c1ccccn1 | > 100 µM | 12.9 µM | – | 8.82 µM | 30.1 µM | 8.03 µM | 5.04 µM | > 100 µM | – | 5.59 µM | – | – | – | – | – | – |
| CCOC(=O)C(NC(C)=O)(Nc1ccc(F)cc1)C(F)(F)F (stereo unspecified) | > 100 µM | > 100 µM | 81.5 µM | > 100 µM | > 100 µM | – | > 100 µM | > 100 µM | – | > 100 µM | – | – | – | – | – | – |
| COc1cc(/C=C2\S/C(=N/Nc3nc(-c4ccc(Br)cc4)cs3)NC2=O)cc(OC)c1OC | – | 29.1 µM | – | 9.51 µM | 32.8 µM | 11.7 µM | 41.8 µM | 67.7 µM | – | 37 µM | – | – | – | – | – | – |
| O=C(Cc1cccs1)N[C@@H]1C(=O)N2C(C(=O)OC(c3ccccc3)c3ccccc3)=C(CO)CS[C@H]12 | > 100 µM | > 100 µM | – | > 100 µM | > 100 µM | 96.9 µM | > 100 µM | – | > 100 µM | > 100 µM | – | – | – | – | – | – |
| Oc1ccc(-c2nc(-c3cccnc3)c(-c3ccc(F)cc3)[nH]2)cc1 | 39.8 µM | – | 43.8 µM | 33.2 µM | 33.2 µM | 46.8 µM | 32.9 µM | 60.8 µM | 32.6 µM | 33.8 µM | – | – | – | – | – | – |
| Cc1cccc2c(=O)cc(-c3ccccc3)[nH]c12 | > 100 µM | 37.1 µM | – | > 100 µM | – | > 100 µM | > 100 µM | > 100 µM | > 100 µM | > 100 µM | – | – | – | – | – | – |
| CNC(=O)C(C)C1CCC2(C)C=CC(=O)C(C)=C2C1O (stereo unspecified) | > 100 µM | > 100 µM | – | > 100 µM | > 100 µM | > 100 µM | – | > 100 µM | – | > 100 µM | – | – | – | – | – | – |
| CC[C@@]1(C[C@H]2C[C@@]3(C(=O)OC)c4[nH]c5ccccc5c4CCN3C2=O)COC2(CCCCC2)O1 | – | > 100 µM | > 100 µM | > 100 µM | 66.9 µM | – | > 100 µM | > 100 µM | > 100 µM | > 100 µM | – | – | – | – | – | – |
| O=C(CCC(=O)c1ccc(Cl)cc1)NO | > 100 µM | > 100 µM | > 100 µM | > 100 µM | > 100 µM | > 100 µM | > 100 µM | > 100 µM | – | > 100 µM | – | – | – | – | – | – |
| [N-]=[N+]=Nc1cc(=O)oc2ccccc12 | > 100 µM | > 100 µM | – | > 100 µM | > 100 µM | > 100 µM | > 100 µM | – | > 100 µM | > 100 µM | – | – | – | – | – | – |
| COc1nc(N)c(C(=O)CCl)c(=O)n1C | 32.4 µM | 32.6 µM | – | 44.7 µM | 30.4 µM | 20.5 µM | – | 52 µM | 22.7 µM | 30.2 µM | – | – | – | – | – | – |
